Assays:
Assay type in all cases: in vivo
zebrafish (Danio rerio) = test: Open Field test in zebrafish; settings: ip
Protocol: The tested substances were injected into the zebrafish intraperitoneally (ip) using an insulin syringe (0.5 ml, 30 g) 10 minutes before the test. The saline solution (0.9% NaCl) was used as a solvent. Anesthesia and immobilization of the animals were achieved by placing them in water at a temperature of 10° C. Control group fish received intraperitoneal injections of an equivalent volume of solvent, also after going through a pre-cooling procedure.
A base, back, and side walls of the aquarium were made of matte black plastic; the front panel (shorter wall) was made of transparent Plexiglas. The setup for the Light/Dark preference test consisted of three main parts: a launch compartment, a light compartment made of white plastic, and a dark compartment made of black plastic. The bright lighting in these tests was provided by a lamp on a stand (LED lamp PL, 11 W, light flux≈600 Lm, about 500 Lx directly above the water surface), which was attached to the upper part of the aquarium.
The open field test was performed as described in Maximino et al., 2013. A video recording (background shooting) was started 20-30 seconds before the zebrafish were placed in the test aquarium. The experimental zebrafish was placed in an open field (“OF”) aquarium using a net. The recording was being conducted for five minutes. The test was carried out using EthoVision XT software package (Noldus). The software registered the distance covered by the animal, its speed, the number of visits to the three conventional zones of the aquarium: “bottom,” “center,” and […] (lower, middle, and upper thirds of the aquarium, respectively), the time spent in these zones, and the latency of a visit to the middle and to the surface of the aquarium.

Sprague Dawley rats [1] = settings: FQSE 0.5 mg/kg i.n.; diazepam 2 mg/kg IP
Protocol: The five doses of FQSE (SEQ ID NO:10) (0.01, 0.1, 0.5, 1 and 3 mg/kg, CS, Menlo Park, CA) were prepared fresh for each test day in sterile saline and administered intranasally (i.n.) 30 minutes prior to testing. Fifteen rats per group per peptide dose were tested with the exception that there were twenty rats in the vehicle (0) group. Each dose was administered in a randomized order across rats. Prior to dosing, the rats were lightly anesthetized (till loss of righting reflex) with isoflurane (2.5%, 0.5 L/min oxygen), placed in the recumbent position, then a thin plastic pipette (Fischer Scientific) inserted into the nares and peptide administered at a volume of 15-20 uL per nares. […]
Open field tests occurred in open field apparatus constructed of gray Plexiglas (17″L×17″ W×12″ H (43.2 cm×43.2 cm×30.5 cm; Noldus, Leesburg, VA) with digital cameras positioned above the arenas to detect different measures of activity using specialized software (Ethovision, XT12). Rats were first allowed to acclimate to the testing room for 30 minutes while in their home cage. The test was initiated by placing the animal in the center of the open field chamber and behavior recorded for 30 minutes. The observer was not in the room during testing. Testing was conducted under red-light. Arenas were cleaned thoroughly between subjects with LpH disinfectant. […]

BALB/C mice [2] = test: Elevated Plus Maze test in mice; settings: ip, Diazepam 0.75 mg/kg
Protocol: (§1) After an adaptation period, the test substance was intraperitoneally injected into mice. Behavioral parameters were measured in 30 minutes after injection. The tests were administered as follows: day 1—the Open field test, day 3—the Elevated plus maze test, day 5—the Marble burying test, days 12-13—the Porsolt swim (two-day modification) test.
In the elevated plus maze test, a test arena includes two open and two closed arms crossed in the middle. The arm length is 30 cm, the height of the closed arms side walls is 15 cm. The entire installation is raised 70 cm above the floor. The open arms have bright uniform illumination of about 400 lux, and the closed arms have illumination of about 30-40 lux. Mice were placed at the junction of the four arms of the maze (center), facing an open arm. The following behavioral parameters were automatically registered by the EthoVision, Noldus program within 5 minutes of the experiment: a total distance (cm), a time of motion (if the speed is more than 5 cm/s), an immobility (if the speed is less than 0.2 cm/sec), a mean and maximum velocity, and the number of episodes of motor activity and “freezing”. The same set of parameters, as well as a latent period and the duration of stay, were measured for the central sector, open and closed arms separately. (Manufactured by OpenScience, Russia).
(§2) All substances were injected intraperitoneally in a volume of 10 μl of solution per 1 gram of animal weight 30 minutes prior to behavioral testing.
The second group of parameters includes a time on open arms (in seconds) (FIG. 35), a number of open arms entries (FIG. 36), a number of risk behavior (number of rearings and dangle events, as shown in FIG. 37]), and an anxiety index (FIG. 38). The anxiety index (AI) was calculated using the following formula: AI=100*(1−(time on open arms/total test time+open arms entries/total number of entries)/2)

BALB/C mice [3] = test: Marble Burying test in mice; settings: ip; Diazepam 0.75 mg/kg; FQSE 5 mg/kg; 30 minutes
Protocol: as §1
In the marble burying test, the installation is a standard T3 cage (19 cm×29 cm×13 cm) filled with bedding material. The standard glass marbles (15 mm in diameter, weight 5.2 g, arbitrary color) were used for the test. Twenty marbles were evenly spaced on the surface in 4 rows, 5 pieces each. The animal was placed in the testing cage for 30 minutes. At the end of the period, after the animal was carefully removed, the number of marbles that were more than two-thirds covered with bedding material was counted.
as §2

Sprague Dawley rats [4] = test: Elevated Plus Maze in rats, intranasal FQSE; settings: FQSE 0.5 mg/kg i.n.; diazepam 2 mg/kg IP
Protocol: The five doses of FQSE (SEQ ID NO:10) (0.01, 0.1, 0.5, 1 and 3 mg/kg, CS, Menlo Park, CA) were prepared fresh for each test day in sterile saline and administered intranasally (i.n.) 30 minutes prior to testing. Fifteen rats per group per peptide dose were tested with the exception that there were twenty rats in the vehicle (0) group. Each dose was administered in a randomized order across rats. Prior to dosing, the rats were lightly anesthetized (till loss of righting reflex) with isoflurane (2.5%, 0.5 L/min oxygen), placed in the recumbent position, then a thin plastic pipette (Fischer Scientific) inserted into the nares and peptide administered at a volume of 15-20 uL per nares. Individuals performing the behavioral tests were blind to drug treatment.
Rats were first allowed to acclimate to the testing room for 30 minutes while in their home cage. During testing, a rat was placed on the maze which consists of two open arms (45-cm long×10-cm wide), two closed arms (45-cm long×10-cm wide×30-cm high), and a middle compartment (4-cm long×4-cm wide) forming the shape of a plus located 50-cm above the floor, for 5-min. The test session was digitally recorded for later analyses (Ethovision, XT12). All testing was conducted under red lighting. An experimenter observed the rat during testing through a specialized observation window built into the door of the behavioral testing room. […]

CN1C(=O)CN=C(c2ccccc2)c2cc(Cl)ccc21 [Diazepam]
distance covered during the open field test (zebrafish (Danio rerio); diazepam 10 mg/kg): tended to cover a smaller distance
average distance covered / track length (locomotor activity) (zebrafish (Danio rerio); diazepam 1.25, 5, 10, fluvoxamine 5, 10, ACZ-10 0.6, BCM-7 5, FQSE 1 and 10, DKTE 1, WDQV 10 mg/kg): did not demonstrate any significant effects
behavior in the open field test (zebrafish (Danio rerio); diazepam 1.25 and 5 mg/kg): No effects
center zone entries (Sprague Dawley rats [1]): 54.3±6.2
total distance (Sprague Dawley rats [1]): 5289±263 cm
Time on open arms (BALB/C mice [2]; FQSE 20 mg/kg): 67.4 ± 18.43 s
Open arms entries (BALB/C mice [2]; FQSE 1 mg/kg): 6.5±0.99
The number of risk behavior (BALB/C mice [2]; FQSE 1 mg/kg): 15±2.8
total distance (BALB/C mice [2]; FQSE 1 mg/kg): 1219±91.4 cm
number of marbles buried (BALB/C mice [3]): 1.2±0.39
percent time on the open arm (Sprague Dawley rats [4]): 10.8±1.11%
